{
  "source": "patent US20110021543A1",
  "about": "“HETEROCYCLIC COMPOUNDS AND THEIR USE AS PESTICIDES” (priority 2007, published 2011)",
  "key": {"[1]": {"tested_on": "Rhipicephalus sanguineus (dog tick)", "assay": "Activity in vitro against Rhipicephalus sanguineus (dog tick), adult tick contact test in 96-well plate", "settings": "at 640 ppm, 10 minutes contact, incubated 7 days at 28° C. and 80% relative humidity", "method": "1. Activity In Vitro Against Rhipicephalus sanguineus (Dog Tick).\nA clean adult tick population is used to seed a suitably formatted 96-well plate containing the test substances to be evaluated for antiparasitic activity. Each compound is tested by serial dilution in order to determine its minimal effective dose (MED). Ticks are left in contact with the test compound for 10 minutes and are then incubated at 28° C. and 80% relative humidity for 7 days, during which the test compound's effect is monitored. Acaricidal activity is confirmed if adult ticks are dead."}, "[2]": {"tested_on": "Ctenocephalides felis (cat flea)", "assay": "Activity in vitro against Ctenocephalides felis (cat flea), artificial blood feeding system", "settings": "at 100 ppm; adult fleas fed on treated blood for 24 hours", "method": "2. Activity In Vitro Against Ctenocephalides felis (Cat Flea). A mixed adult population of fleas is placed in a suitably formatted 96-well plate allowing fleas to access and feed on treated blood via an artificial feeding system. Each compound is tested by serial dilution in order to determine its MED. Fleas are fed on treated blood for 24 hours, after which the compound's effect is recorded. Insecticidal activity is determined on the basis of the number of dead fleas recovered from the feeding system."}},
  "data": [
    {"compound": "CC(O)(c1cn(-c2c(Cl)cc(C(F)(F)F)cc2Cl)c2cccnc12)C(F)(F)F", "note": "(centres unmarked) [Compound 1.43, 2-[1-(2,6-Dichloro-4-trifluoromethyl-phenyl)-1H-pyrrolo[3,2-b]pyridin-3-yl]-1,1,1-trifluoro-propan-2-ol]", "values": [
      {"measurement": "efficacy (acaricidal activity, dead adult ticks)", "setting": "[1]", "value": "more than 80%"},
      {"measurement": "efficacy (insecticidal activity, dead fleas)", "setting": "[2]", "value": "more than 80%"}
    ]}
  ]
}
